What all share (assay type): cell-based
In experiment [1] the test system is MOLT-4 cells. The experiment can be described thus: CTG (CellTiter-Glo) cell viability assay, MOLT-4. The settings on record: Homo sapiens, MOLT-4, 72 h, 3 day incubation, read-out: CTG Cell Viability Assay - MOLT-4 3 day: Average external-IC50. Summed up:
(§1)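 MOLT-4 and Caki-2 cells at 10,000 cells/well exposed 3 days at 37° C., 5% CO2 to 9 doses (1:3, top 10 μM, 0.2% DMSO). Viability by CellTiter-Glo luminescence; IC50 from three-parameter logistic fit.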

For experiment [2], the target named is T1, BCL-XL (Homo sapiens, UniProt Q07817).
T1 construct: endogenous in cells; host or cells: MOLT-4
T1 sequence (Q07817 whole entry): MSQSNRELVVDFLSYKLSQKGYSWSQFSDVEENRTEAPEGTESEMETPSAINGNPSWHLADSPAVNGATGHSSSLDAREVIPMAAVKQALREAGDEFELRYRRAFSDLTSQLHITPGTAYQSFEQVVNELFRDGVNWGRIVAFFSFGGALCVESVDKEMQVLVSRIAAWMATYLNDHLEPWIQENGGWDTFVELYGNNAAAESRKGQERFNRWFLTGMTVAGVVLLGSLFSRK
Nature of the experiment: Bcl-xL ELISA degradation in MOLT-4 cells, 6 h. To be noted: for DC50: read-out: Bcl-xL ELISA in MOLT-4 degradation 6 h: Mean external-Abs DC50. The procedure:
The letter codes for BCL-XL DC50 include: A (<0.01 μM); B (0.01-0.1 μM); C (>[…]); D (>0.5-1.0 μM); and E (>1.0 μM). The letter codes for Dmax % include A (>75%); B (50 to 75%); C (<50%).
(In an ELISA, binding on a coated surface is turned into a signal by an enzyme label.)

Experiment [3] deals with Caki-2 cells. Nature of the experiment: CTG (CellTiter-Glo) cell viability assay, Caki-2. The settings on record: Homo sapiens, 72 h, 3 day incubation, read-out: CTG Chempartner - Caki-2 3 day: Average external-IC50. The procedure, abridged: as §1
For orientation: ATP-based viability assays read luminescence as a measure of living cells.

pIC50: −log10 of the molar value.

Consider 22 compounds from US20250197387A1, “BCL-XL DEGRADERS AND USES THEREOF” (Kymera Therapeutics, Inc., priority 2021, published 2025).

Take `Cc1cc(C(C(=O)N2C[C@H](O)C[C@H]2C(=O)NCc2ccc(-c3scnc3C)cc2OCCN(C)C2CCN(C(=O)c3nc(N4CCc5cccc(C(=O)Nc6nc7ccccc7s6)c5C4)ccc3-c3cnn(CC4CCCCC4)c3C)CC2)C(C)C)on1` (stereo partly shown) [I-322]: the pIC50 – broadly, the IC50 on a negative log10 scale, so that one unit is a factor of ten – in experiment [1] is 6.00 to 7.00. In addition, in experiment [2], the greatest degradation seen (Dmax) (commonly the largest share of the target that was removed) lay in the range of 50 to 75% and the DC50 (usually the midpoint of the concentration-degradation curve) was 0.1 to 0.5 µM. In addition, in experiment [3], the pIC50 was 6.00 to 7.00.
For `Cc1cc(N(C)c2ccc(-c3cnn(CC45CC6CC(CC(C6)C4)C5)c3C)c(C(=O)NS(=O)(=O)CCCCCC(=O)N[C@H](C(=O)N3C[C@H](O)C[C@H]3C(=O)NCc3ccc4c(c3)c(C)nn4C)C(C)(C)C)n2)nnc1Nc1nc2ccccc2s1` [I-484], the pIC50 in experiment [1] is greater than 7.00. Moreover, in experiment [2], the Dmax was greater than 75% and the DC50 was less than 0.01 µM. The pIC50 in experiment [3] is less than 5.00.
Regarding `Cc1ncsc1-c1ccc([C@H](C)NC(=O)[C@@H]2C[C@@H](O)CN2C(=O)[C@@H](NC(=O)CCCCCS(=O)(=O)NC(=O)c2nc(N3CCc4cccc(C(=O)Nc5nc6ccccc6s5)c4C3)ccc2-c2cccc(OC(C)C)c2C)C(C)(C)C)cc1` [I-309], the results for the pIC50 in experiment [1] and in experiment [3] were 5.52 to 6.00 and 5.00 to 6.00, respectively. Moreover, the greatest degradation seen (Dmax) in experiment [2] lay in the range of 50 to 75%. Further, the DC50 in experiment [2] lay within 0.1 to 0.5 µM.
Consider `C#Cc1ccc(CNC(=O)[C@@H]2C[C@@H](O)CN2C(=O)[C@@H](NC(=O)C2CN(c3ccc(S(=O)(=O)NC(=O)c4nc(N5CCc6cccc(C(=O)Nc7nc8ccccc8s7)c6C5)ccc4-c4cnn(CC5CCCCC5)c4C)cc3F)C2)C(C)(C)C)cc1` [I-358], for which the results for the pIC50 in experiment [1] and in experiment [3] were greater than 7.00 and 5.00 to 6.00, respectively. In experiment [2], the Dmax is greater than 75%. In experiment [2], the DC50 fell in the range of 0.01 to 0.1 µM.
`Cc1ncsc1-c1ccc([C@H](C)NC(=O)[C@@H]2C[C@@H](O)CN2C(=O)[C@H](c2cc(OC3CC4(C3)CN(C(=O)c3nc(N5CCc6cccc(C(=O)Nc7nc8ccccc8s7)c6C5)ccc3-c3cnn(CC5CCCCC5)c3C)C4)no2)C(C)C)cc1` [I-293]: in experiment [1], the pIC50 was 5.52 to 6.00. Also, in experiment [2], the Dmax is less than 50% and the DC50 is 0.5 to 1 µM. In addition, in experiment [3], the pIC50 was 5.00 to 6.00.
As to `Cc1cc(N(C)c2ccc(-c3cnn(CC45CC6CC(CC(C6)C4)C5)c3C)c(C(=O)NS(=O)(=O)CCCCCC(=O)N[C@H](C(=O)N3C[C@H](O)C[C@H]3C(=O)NCc3ccc(-c4scnc4C)cc3)C(C)(C)C)n2)nnc1Nc1nc2cccnc2s1` [I-451], the pIC50 in experiment [1] is 6.00 to 7.00. Moreover, in experiment [2], the Dmax is greater than 75% and the DC50 fell in the range of 0.01 to 0.1 µM. Moreover, in experiment [3], the negative-log IC50 (pIC50) was less than 5.00.
Turning to `Cc1ncsc1-c1ccc([C@H](C)NC(=O)[C@@H]2C[C@@H](O)CN2C(=O)[C@@H](NC(=O)C2CCN(c3ccc(S(=O)(=O)NC(=O)c4nc(N5CCc6cccc(C(=O)Nc7nc8ccccc8s7)c6C5)ccc4-c4cnn(CC5CC5)c4C)cc3)CC2)C(C)(C)C)cc1` [I-344], the negative-log IC50 (pIC50) in experiment [1] is 6.00 to 7.00. Further, in experiment [2], the Dmax was greater than 75% and the DC50 is 0.01 to 0.1 µM. Moreover, the pIC50 in experiment [3] is less than 5.00.
On to `Cc1ncsc1-c1ccc([C@H](C)NC(=O)[C@@H]2C[C@@H](O)CN2C(=O)[C@@H](NC(=O)C#CC2CCN(S(=O)(=O)NC(=O)c3nc(N4CCc5cccc(C(=O)Nc6nc7ccccc7s6)c5C4)ccc3-c3cnn(CC4CCCCC4)c3C)CC2)C(C)(C)C)cc1` [I-420], for which the pIC50 in experiment [1] is greater than 7.00. In addition, in experiment [2], the Dmax is greater than 75% and the DC50 was in the range of 0.01 to 0.1 µM. Moreover, the pIC50 in experiment [3] was 5.00 to 6.00.
Regarding `Cc1ncsc1-c1ccc([C@H](C)NC(=O)[C@@H]2C[C@@H](O)CN2C(=O)[C@@H](NC(=O)C2CCN(c3ccc(S(=O)(=O)NC(=O)c4nc(N5CCc6cccc(C(=O)Nc7nc8ccccc8s7)c6C5)ccc4-c4cnn(CC5CCCCC5)c4C)cc3COP(=O)(O)O)CC2)C(C)(C)C)cc1` [I-334], the pIC50 in experiment [1] was 5.52 to 6.00; in experiment [3], 5.00 to 6.00. The compound further showed a Dmax in experiment [2] greater than 75%. The DC50 in experiment [2] was 0.1 to 0.5 µM.
In the case of `C#Cc1ccc(CNC(=O)[C@@H]2C[C@@H](O)CN2C(=O)[C@@H](NC(=O)C2CN(CCS(=O)(=O)NC(=O)c3nc(N(C)c4cc(C)c(Nc5nc6ccccc6s5)nn4)ccc3-c3cnn(CC45CC6CC(CC(C6)C4)C5)c3C)C2)C(C)(C)C)cc1` [I-433], the figures for the pIC50 in experiment [1] and in experiment [3] were 6.00 to 7.00 and less than 5.00, respectively. The compound further showed a Dmax in experiment [2] greater than 75%. Also, the DC50 in experiment [2] lay in the range of 0.1 to 0.5 µM.
With `C#Cc1ccc(C2(NC(=O)[C@@H]3C[C@@H](O)CN3C(=O)[C@@H](NC(=O)CCCCCS(=O)(=O)NC(=O)c3nc(N4CCc5cccc(C(=O)Nc6nc7cccnc7s6)c5C4)ccc3-c3cnn(CC4CCCCC4)c3C)C(C)(C)C)CC2)cc1` [I-482], the pIC50 in experiment [1] was greater than 7.00. Moreover, in experiment [2], the Dmax was greater than 75% and the DC50 was less than 0.01 µM. Moreover, the negative logarithm of the IC50 (pIC50) in experiment [3] is less than 5.00.
Regarding `Cc1cc(N(C)c2ccc(-c3cnn(CC45CC6CC(CC(C6)C4)C5)c3C)c(C(=O)NS(=O)(=O)CCCC(=O)N[C@H](C(=O)N3C[C@H](O)C[C@H]3C(=O)N[C@@H](C)c3ccc(-c4scnc4C)cc3)C(C)(C)C)n2)nnc1Nc1nc2cccnc2s1` [I-452], the pIC50 in experiment [1] is 5.52 to 6.00. Further, in experiment [2], the greatest degradation seen (Dmax) was greater than 75% and the DC50 was 0.1 to 0.5 µM. The pIC50 in experiment [3] was less than 5.00.
In the same order, the values of `Cc1ncsc1-c1ccc([C@H](C)NC(=O)[C@@H]2C[C@@H](O)CN2C(=O)[C@@H](NC(=O)[C@H]2CC[C@H](c3nc(C4CCCN(C(=O)c5nc(N6CCc7cccc(C(=O)Nc8nc9ccccc9s8)c7C6)ccc5-c5cnn(CC6CCCCC6)c5C)C4)no3)CC2)C(C)(C)C)cc1` (stereo partly shown) [I-301] are 6.00 to 7.00, 50 to 75%, greater than 1 µM and 5.00 to 6.00.
Take `Cc1cc(N(C)c2ccc(-c3cnn(CC45CC6CC(CC(C6)C4)C5)c3C)c(C(=O)NS(=O)(=O)CCCCCC(=O)N[C@H](C(=O)N3C[C@H](O)C[C@H]3C(=O)N[C@H](C)c3ccc4c(c3)c(C)nn4C)C(C)(C)C)n2)nnc1Nc1nc2ccccc2s1` (single isomer, unassigned) [I-492]: in experiment [1], the negative-log IC50 (pIC50) is 6.00 to 7.00. Moreover, in experiment [2], the Dmax was greater than 75% and the 50% degradation concentration (DC50) lay within 0.01 to 0.1 µM. In experiment [3], the negative logarithm of the IC50 (pIC50) was less than 5.00.
As for `Cc1ncsc1-c1ccc(CNC(=O)[C@@H]2C[C@@H](O)CN2C(=O)[C@@H](NC(=O)CCCCCS(=O)(=O)NC(=O)c2nc(N3CCc4cccc(C(=O)Nc5nc6cccnc6s5)c4C3)ccc2-c2cnn(CC(C)(C)C)c2C)C(C)(C)C)cc1` [I-467], the pIC50 in experiment [1] was 5.52 to 6.00. In addition, in experiment [2], the Dmax was greater than 75% and the DC50 was 0.1 to 0.5 µM. Also, in experiment [3], the pIC50 was less than 5.00.
The corresponding values for `Cc1ncsc1-c1ccc([C@H](C)NC(=O)[C@@H]2C[C@@H](O)CN2C(=O)[C@@H](NC(=O)C2CCN(c3ccc(S(=O)(=O)NC(=O)c4nc(N5CCc6cccc(C(=O)Nc7nc8ccccc8s7)c6C5)ccc4-c4ccnc(OC(C)C)c4C)cc3)CC2)C(C)(C)C)cc1` [I-300] are 6.00 to 7.00, 50 to 75%, 0.1 to 0.5 µM and 5.00 to 6.00.
The corresponding values for `Cc1ncsc1-c1ccc(CNC(=O)[C@@H]2C[C@@H](O)CN2C(=O)[C@@H](NC(=O)C2CCN(c3ccc(S(=O)(=O)NC(=O)c4nc(N5CCc6cccc(C(=O)Nc7nc8ccccc8s7)c6C5)ccc4-c4cnn(CC5CCCCC5)c4C)cc3C#N)CC2)C(C)(C)C)cc1` [I-360] are 6.00 to 7.00, greater than 75%, less than 0.01 µM and less than 5.00.
With `Cc1cc(N(C)c2ccc(-c3cnn(CC45CC6CC(CC(C6)C4)C5)c3C)c(C(=O)NS(=O)(=O)c3ccc(N4CC(C(=O)N[C@H](C(=O)N5C[C@H](O)C[C@H]5C(=O)NCc5ccc(-c6scnc6C)cc5)C(C)(C)C)C4)cc3)n2)nnc1Nc1nc2ccccc2s1` [I-437], the pIC50 in experiment [1] was greater than 7.00. In experiment [2], the Dmax was greater than 75% and the DC50 is 0.01 to 0.1 µM. Also, in experiment [3], the pIC50 is less than 5.00.
Turning to `Cc1ncsc1-c1ccc([C@H](C)NC(=O)[C@@H]2C[C@@H](O)CN2C(=O)[C@@H](NC(=O)CCCCCS(=O)(=O)NC(=O)c2nc(N3CCc4cccc(C(=O)Nc5nc6ccccc6s5)c4C3)ccc2-c2cnn(CC3CCCC3)c2C)C(C)(C)C)cc1` [I-442], the pIC50 in experiment [1] is greater than 7.00. In experiment [2], the Dmax was greater than 75% and the DC50 is 0.01 to 0.1 µM. In addition, the pIC50 in experiment [3] was less than 5.00.
As for `Cc1ncsc1-c1ccc([C@H](C)NC(=O)[C@@H]2C[C@@H](O)CN2C(=O)[C@@H](NC(=O)C2CCN(c3ccc(S(=O)(=O)NC(=O)c4nc(N5CCc6cccc(C(=O)Nc7nc8ccccc8s7)c6C5)ccc4-c4cnn(CC5CCCCC5)c4C)cc3)C(=O)C2)C(C)(C)C)cc1` (stereo partly shown) [I-299], the pIC50 in experiment [1] was 6.00 to 7.00. Moreover, in experiment [2], the Dmax is greater than 75% and the DC50 lay within 0.1 to 0.5 µM. Besides, the negative logarithm of the IC50 (pIC50) in experiment [3] is 5.00 to 6.00.
The corresponding values for `Cc1ncsc1-c1ccc([C@H](C)NC(=O)[C@@H]2C[C@@H](O)CN2C(=O)[C@@H](NC(=O)C2CCN(c3ccc(S(=O)(=O)NC(=O)c4nc(N5CCc6cccc(C(=O)Nc7nc8ccccc8s7)c6C5)ccc4-c4cccc(N(C)C(C)C)c4C)cc3)CC2)C(C)(C)C)cc1` [I-323] are 6.00 to 7.00, 50 to 75%, 0.1 to 0.5 µM and less than 5.00.
For the compound `C#Cc1ccc([C@H](C)NC(=O)[C@@H]2C[C@@H](O)CN2C(=O)[C@@H](NC(=O)CCCCCS(=O)(=O)NC(=O)c2nc(N(C)c3cc(C)c(Nc4nc5cccnc5s4)nn3)ccc2-c2cnn(CC34CC5CC(CC(C5)C3)C4)c2C)C(C)(C)C)cc1` [I-447], the pIC50 in experiment [1] was 6.00 to 7.00; in experiment [3], less than 5.00. For the same compound, in experiment [2], the Dmax is greater than 75%. Moreover, the DC50 in experiment [2] was 0.01 to 0.1 µM.
